Values of other authors, collected in patent publication US8657798B2, “Anti-inflammatory analgesic adhesive patch for external use” (Teikoku Seiyaku Co., Ltd., priority 2010, dated 2014).

Conditions: compared with diclofenac sodium

In the case of Diclofenac hydroxyethylpyrrolidine, the water solubility is given as “better water solubility than diclofenac sodium”.
